Results taken from publication PMC5855594, “Poly-N-Acetyllactosamine Neo-Glycoproteins as Nanomolar Ligands of Human Galectin-3: Binding Kinetics and Modeling” (International Journal of Molecular Sciences, 2018).
Read-outs that look alike come from different tables or passages of the source.

Key:
[1] = molecular target: T1, Gal-3-AVI (Homo sapiens, UniProt P17931); test: Competitive ELISA with Gal-3-AVI construct; type: binding; details: read-out: IC50 glycan, competitive ELISA
T1 construct: made in house; host or cells: E. coli BL21 (λDE3), co-expressed with BirA
T1 sequence (P17931 whole entry): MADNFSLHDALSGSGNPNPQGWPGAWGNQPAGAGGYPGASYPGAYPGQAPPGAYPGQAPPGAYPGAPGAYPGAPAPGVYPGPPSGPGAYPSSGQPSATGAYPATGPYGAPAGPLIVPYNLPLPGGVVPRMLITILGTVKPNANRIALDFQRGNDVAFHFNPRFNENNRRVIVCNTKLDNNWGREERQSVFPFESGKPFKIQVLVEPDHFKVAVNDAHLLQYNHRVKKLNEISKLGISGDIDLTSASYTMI

[2] = molecular target: T2, human galectin-3 (Gal-3) (Homo sapiens, UniProt P17931); test: Competitive ELISA: inhibition of His-tagged Gal-3 binding to immobilized asialofetuin (ASF); details: for increase of inhibitory potency compared to lactose (times): competitive ELISA; for IC50: read-out: IC50 Glycan
T2 construct: made in house; host or cells: E. coli Rosetta (DE3) pLysS
T2 sequence (P17931 whole entry): as above
Procedure: To assess the inhibitory potential of glycans 1–8 and the respective neo-glycoproteins 9–16 towards Gal-3, their capacity to inhibit the binding of Gal-3 to immobilized asialofetuin (ASF) was determined by competitive ELISA inhibition analyses (Figure 2b). ASF is a multivalent glycoprotein presenting three triantennary N-glycans terminated with LacNAc, which is reported to interact with Gal-3. Here, Gal-3 was incubated with increasing concentrations of the glycans or neo-glycoproteins as competing ligands and the inhibition of Gal-3 binding to immobilized ASF was quantified by colorimetric immunodetection using anti-His antibody conjugated to HRP. […] The respective inhibition constants (IC50) were calculated from the non-linear regression of the sigmoidal inhibition curves and they are listed in Table 1.
In the competitive ELISA design, the F16 Maxisorp NUNC-Immuno Modules (Thermo Scientific, Roskilde, Denmark) were coated overnight with ASF (Sigma Aldrich, Steinheim, Germany; 0.1 µM in PBS, 50 µL, 5 pmol per well) and blocked with BSA (2% w/v) diluted in PBS (1 h, room temperature). […] Detection of bound Gal-3 and data analysis were performed as described above.

[3] = molecular target: T2, human galectin-3 (Gal-3); details: monovalent glycan; inhibition of Gal-3 binding to immobilized ASF; cited from earlier work
[4] = molecular target: T1, Gal-3-AVI; test: Direct ELISA with Gal-3-AVI construct; type: binding; details: read-out: Kd app, direct ELISA
Description: To overcome the difficulties with Gal-3 immobilization, we prepared a biotinylated version of Gal-3 through in vivo biotinylation of an AviTag peptide that was genetically fused to the N-terminus of Gal-3 (Gal-3-AVI) (Figure 3). The AviTag is a specific 15-amino acid peptide sequence ([…]) that directs a highly targeted enzymatic conjugation of a single biotin molecule to the specific lysine (K) residue within the AviTag sequence using biotin ligase (BirA). In contrast to chemical biotinylation, which usually generates heterogeneous products with impaired function, the co-translational biotinylation of the AviTag peptide is site specific and provides a highly homogeneous protein preparation. Moreover, the N-terminal localization of the AviTag peptide provides a favorable orientation of Gal-3-AVI on a streptavidin-coated surface, leaving the C-terminal carbohydrate-binding domain of Gal-3 freely accessible for binding interactions.
Table S1. Comparison of binding affinities of His6-tag Gal-3 and Gal-3-AVI in ELISA assays Kd app [µM], direct ELISA IC50 glycan [µM], competitive ELISA […]
Figure S7. SPR kinetic binding analysis of the interactions between asialofetuin (ASF) and immobilized Gal-3-AVI. ASF was injected in parallel over the neutravidin-coated sensor chip coated with the biotinylated Gal-3-AVI at a flow rate of 30 µl/min. […]

[5] = molecular target: T2, human galectin-3 (Gal-3); test: Direct ELISA: binding of soluble His-tagged Gal-3 to immobilized neo-glycoproteins or ASF
Description: To determine the binding affinities between Gal-3 and neo-glycoproteins 9–16, the binding of soluble Gal-3 to the neo-glycoproteins immobilized in microplate wells was quantified by colorimetric immunodetection using anti-His antibody conjugated to horseradish peroxidase (HRP) (Figure 2a). Gal-3 bound neo-glycoproteins in a concentration-dependent manner and the interaction was exclusively conferred by glycan moieties since no binding of Gal-3 to the glycan-free BSA was detected. Apparent dissociation constants (Kd) of the Gal-3/neo-glycoprotein complexes were calculated from a non-linear regression of binding curves.
The affinity of Gal-3 for neo-glycoproteins 9–16 was determined using ELISA as reported previously. For the immobilization of the respective neo-glycoproteins or non-modified BSA (negative control), we used F16 Maxisorp NUNC-Immuno Modules (Thermo Scientific, Roskilde, Denmark). Per well, an amount of 5 pmol was incubated overnight at a working concentration of 0.1 µM (PBS). Then the wells were blocked with bovine serum albumin (2% w/v) diluted in PBS (1 h, room temperature). […] The binding signal of bound galectin was measured with a spectrophotometer (Spectra Max Plus, Molecular Devices, Sunnyvale, CA, USA) at an optical density of 450 nm. Obtained data were analyzed using SigmaPlot 10 software (Systat Software GmbH, Erkrath, Germany).

[6] = molecular target: T1, Gal-3-AVI; test: SPR with biotinylated Gal-3-AVI captured on neutravidin chip, neo-glycoproteins as analytes; type: binding
Procedure: For SPR analysis, the biotinylated Gal-3-AVI was captured on a neutravidin-coated sensor chip, and the binding of serially diluted neo-glycoproteins 9–16 to immobilized Gal-3-AVI was analyzed. Three coupling concentrations of Gal-3-AVI were tested, so that the effect of mass transfer and the non-specific binding were minimized. As a result, the coupling level of 250 relative units (RU) along with the flow rate of 30 µL/min gave the optimum conditions and these parameters were used for the subsequent experiments.
Figure 4 SPR kinetic binding analysis of the interactions between neo-glycoproteins 9–16 and immobilized Gal-3-AVI. The neo-glycoproteins at indicated concentrations were injected in parallel over the neutravidin-coated sensor chip coated with the biotinylated Gal-3-AVI at a flow rate of 30 μL/min. The kinetic data were globally fitted by using a 1:1 Langmuir binding model. The fitted curves are superimposed as thin black lines on top of the sensograms. BSA, bovine serum albumin; rel., relative.
SPR measurements were performed at 25 °C using a set of sensor chips (GLC, NLC, HTE) mounted on a ProteOn XPR36 Protein Interaction Array System (Bio-Rad, Hercules, CA, USA ) as described previously. Briefly, Gal-3-AVI protein was diluted to a final concentration of 5 µg·mL^−1 in PBS and captured on a neutravidin-coated NLC sensor chip (Bio-Rad) at a flow rate of 30 µL·min^−1. Neo-glycoproteins 9–16, used here as analytes, were serially diluted in the running buffer (PBS supplemented with 0.005% Tween 20), and injected in parallel over the immobilized Gal-3-AVI at a flow rate of 30 µL·min^−1. The Gal-3-AVI surface was regenerated by a washing step with 50 mM HCl for 60 s. For the reversed experimental setup, the neo-glycoproteins 9–16 were immobilized on the GLC sensor chip by amine coupling chemistry and serial dilutions of Gal-3 were injected over the sensor surface. […] The equilibrium dissociation constant, KD, was determined as a ratio between the dissociation and association rate constants: KD=kd/ka

[7] = immobilized Gal-3-AVI, 1:1 Langmuir model, 25 °C

Compound: CC(=O)N[C@@H]1[C@@H](O)[C@H](O[C@@H]2O[C@H](CO)[C@H](O)[C@H](O)[C@H]2NC(C)=O)[C@@H](CO)O[C@H]1NC(=S)NCCNC(=O)OC(C)(C)C [glycan 1, LacdiNAc]
- IC50 [1]: 43 ± 4 µM
- increase of inhibitory potency compared to lactose (times) [2]: up to 4
- IC50 [2]: 42 ± 2 µM

Compound: CC(=O)N[C@@H]1[C@@H](O)[C@H](O[C@@H]2O[C@H](CO)[C@H](O)[C@H](O)[C@H]2O)[C@@H](CO)O[C@H]1NC(=S)NCCNC(=O)OC(C)(C)C [glycan 2]
- increase of inhibitory potency compared to lactose (times) [2]: up to 4
- IC50 [2]: 36 ± 1 µM

Compound: CC(=O)N[C@@H]1[C@@H](O)[C@H](O[C@@H]2O[C@H](CO)[C@H](O)[C@H](O[C@@H]3O[C@H](CO)[C@@H](O[C@@H]4O[C@H](CO)[C@H](O)[C@H](O)[C@H]4NC(C)=O)[C@H](O)[C@H]3NC(C)=O)[C@H]2O)[C@@H](CO)O[C@H]1NC(=S)NCCNC(=O)OC(C)(C)C [glycan 3, LacdiNAc-LacNAc]
- IC50 [3]: 7 ± 1 µM

Compound: CC(=O)N[C@@H]1[C@@H](O)[C@H](O[C@@H]2O[C@H](CO)[C@H](O)[C@H](O[C@@H]3O[C@H](CO)[C@@H](O[C@@H]4O[C@H](CO)[C@H](O)[C@H](O)[C@H]4O)[C@H](O)[C@H]3NC(C)=O)[C@H]2O)[C@@H](CO)O[C@H]1NC(=S)NCCNC(=O)OC(C)(C)C [glycan 4, LacNAc-LacNAc]
- IC50 [3]: 13 ± 3 µM

Compound: CC(=O)N[C@@H]1[C@@H](O)[C@H](O[C@@H]2O[C@H](CO)[C@H](O)[C@H](O[C@@H]3O[C@H](CO)[C@@H](O[C@@H]4O[C@H](CO)[C@H](O)[C@H](O[C@@H]5O[C@H](CO)[C@@H](O[C@@H]6O[C@H](CO)[C@H](O)[C@H](O)[C@H]6NC(C)=O)[C@H](O)[C@H]5NC(C)=O)[C@H]4O)[C@H](O)[C@H]3NC(C)=O)[C@H]2O)[C@@H](CO)O[C@H]1NC(=S)NCCNC(=O)OC(C)(C)C [glycan 5, LacdiNAc-LacNAc-LacNAc]
- IC50 [3]: 6.2 ± 0.02 µM

Compound: CC(=O)N[C@@H]1[C@@H](O)[C@H](O[C@@H]2O[C@H](CO)[C@H](O)[C@H](O[C@@H]3O[C@H](CO)[C@@H](O[C@@H]4O[C@H](CO)[C@H](O)[C@H](O[C@@H]5O[C@H](CO)[C@@H](O[C@@H]6O[C@H](CO)[C@H](O)[C@H](O)[C@H]6O)[C@H](O)[C@H]5NC(C)=O)[C@H]4O)[C@H](O)[C@H]3NC(C)=O)[C@H]2O)[C@@H](CO)O[C@H]1NC(=S)NCCNC(=O)OC(C)(C)C [glycan 6, LacNAc-LacNAc-LacNAc]
- IC50 [3]: 20.1 ± 0.1 µM

Compound: CC(=O)N[C@@H]1[C@@H](O)[C@H](O[C@@H]2O[C@H](CO)[C@H](O)[C@H](O[C@@H]3O[C@H](CO)[C@@H](O[C@@H]4O[C@H](CO)[C@H](O)[C@H](O[C@@H]5O[C@H](CO)[C@@H](O)[C@H](O[C@@H]6O[C@H](CO)[C@H](O)[C@H](O)[C@H]6O)[C@H]5NC(C)=O)[C@H]4O)[C@H](O)[C@H]3NC(C)=O)[C@H]2O)[C@@H](CO)O[C@H]1NC(=S)NCCNC(=O)OC(C)(C)C [glycan 7, LacNAc type 1-LacNAc-LacNAc]
- IC50 [3]: 12.5 ± 0.1 µM

Compound: CC(=O)N[C@@H]1[C@@H](O)[C@H](O[C@@H]2O[C@H](CO)[C@H](O)[C@H](O[C@@H]3O[C@H](CO)[C@@H](O[C@@H]4O[C@H](CO)[C@H](O)[C@H](O[C@@H]5O[C@H](CO)[C@@H](O[C@@H]6O[C@H](CO)[C@H](O)[C@H](O[C@H]7O[C@H](CO)[C@H](O)[C@H](O)[C@H]7O)[C@H]6O)[C@H](O)[C@H]5NC(C)=O)[C@H]4O)[C@H](O)[C@H]3NC(C)=O)[C@H]2O)[C@@H](CO)O[C@H]1NC(=S)NCCNC(=O)OC(C)(C)C [glycan 8, Galili-LacNAc-LacNAc]
- IC50 [3]: 8.4 ± 0.1 µM

Compound: Asialofetuin [ASF]
- Kd [4]: 4.8 ± 0.2 µM
- Kd ([5]; His6-tag Gal-3, read-out: Kd app, direct ELISA): 5 ± 1 µM
- ka [6, 7]: (4.8 ± 1.9) × 10^4 M^−1·s^−1
- kd [6, 7]: (4.0 ± 1.7) × 10^−4 s^−1

Compound: bovine serum albumin [BSA]
- binding of Gal-3 in direct ELISA ([5]; negative control, immobilized): no binding
- SPR response / binding to immobilized Gal-3-AVI ([6]; nanomolar concentrations): no binding
